From paper PMC8018184, “Evaluation of the Pharmacophoric Role of the O–O Bond in Synthetic Antileishmanial Compounds: Comparison between 1,2-Dioxanes and Tetrahydropyrans” (Journal of Medicinal Chemistry, 2020) come the findings set out here.

For data set [1], the system named is L. donovani promastigotes (MHOM/NP/02/BPK282/0cl4). Nature of the data set: Promastigote growth inhibition assay (alamarBlue). Type of data set: cell-based, Leishmania donovani. Conditions: for IC50: Leishmania donovani, 72 h, alamarBlue, HOMEM 20% FBS, compounds as racemates, read-out: IC50 (concentration causing 50% growth inhibition) against promastigotes of L. donovani; for Selectivity index (SI) = CC50/IC50: Vero CC50 / IC50 on promastigotes. Here is the method: The bioactivity of the new tetrahydropyrans 3 was initially evaluated against the extracellular promastigote forms of L. donovani (MHOM/NP/02/BPK282/0cl4) as the reference strain, indicative of the leishmaniasis in the Old World. The results were expressed as IC50, i.e., the concentration of the product required to inhibit the parasite growth by 50%. When a compound could inhibit the promastigote growth, its cytotoxicity was also evaluated on Vero cells (Table 1) and on THP-1 cells (see the Supporting Information, Table S3) and the corresponding selectivity indexes (SIs) were calculated. The performance of each tetrahydropyran 3 was compared with that of the corresponding endoperoxide 2 (Table 1).
Promastigotes of a L. donovani reference strain (MHOM/NP/02/BPK282/0cl4) were maintained at 26 °C in a liquid custom-made medium, HOMEM Cat. no: 1140-082 (Gibco Thermo Fisher Scientific Inc., Waltham, USA), complete composition: S-MEM (Eagle) 1 × 1 liter pack, glucose (1–2 g), sodium bicarbonate (0.3 g), sodium pyruvate (0.11 g), p-aminobenzoic acid (1 mg), biotin (0.1 mg), HEPES (4.77–5.96 g), MEM amino acids (10 mL), MEM nonessential amino acids (10 mL), pH 7.5–7.6, supplemented with 20% fetal bovine serum (FBS, EuroClone SpA, Milan, Italy)[123] and 1% penicillin–streptomycin (EuroClone SpA).
To evaluate the efficacy of the compounds on the extracellular forms of L. donovani, promastigotes in their late log/stationary phase were seeded with the complete HOMEM medium at 10^6 cells mL^–1 in 96-well plates and incubated with tested compounds at a range concentration of 600–1.6 μM in a 26 °C incubator for 72 h. The antileishmanial drug amphotericin B was used as the positive control, and untreated promastigotes were the negative control. Each experiment was performed in duplicate. Stock solution of the compounds was 8 mM in DMSO. […] The alamarBlue assay includes a colorimetric growth indicator based on detection of metabolic activity. Specifically, the system incorporates an oxidation–reduction (REDOX) indicator that changes color in response to chemical reduction of the growth medium resulting from cell growth. The method monitors the reducing environment of proliferating cells; the cell-permeable resazurin is added (nonfluorescent form, blue color) and, upon entering cells, is reduced to resorufin (fluorescent form, red color) as a result of cellular metabolic activity. Evaluation was performed by adding 20 μL of alamarBlue and incubating at 26 °C for 24 h. The reducing environment was evaluated after 24 h by absorbance measurement at the Multiskan ascent plate reader (Thermo Fisher Scientific Inc.) at 550 and 630 nm.
(In general: Resazurin is reduced to fluorescent resorufin, in cell work by metabolically active cells.)

The nature of data set [2]: Cytotoxicity test on Vero cells (alamarBlue). The data set is classed as cell-based, African green monkey. The following applies: chlorocebus sabaeus, Vero cells (kidney epithelial cell line); 72 h, alamarBlue; read-out: CC50 (50% cytotoxic concentration) on Vero cells. As for the experimental part: Vero cells (kidney of African green monkey epithelial cell line) were cultured at 37 °C in the MEM liquid medium supplemented with 10% FBS (EuroClone SpA), 1% levoglutamine (EuroClone SpA), and 1% penicillin–streptomycin (EuroClone SpA). THP-1 cells (human leukemia monocytic cell line) were cultured at 37 °C in the RPMI 1640 (EuroClone SpA) liquid medium supplemented with 10% FBS (EuroClone SpA), 1% levoglutamine (EuroClone SpA), 1% penicillin–streptomycin, and mercaptoethanol (Gibco) 50 μM.
The cytotoxicity of the compounds was determined using mammalian kidney epithelial cells (Vero cell line) and human acute monocytic leukemia cell line (THP-1). Cells were seeded (10^5 cells mL^–1) on 96-well plates with the complete MEM medium and incubated with test compounds at 37 °C in a 5% CO2 incubator. After 72 h of incubation, 20 μL of the alamarBlue reagent was added to each well and incubated at 37 °C for 24 h. Reduction of resazurin to resorufin was evaluated after 24 h by absorbance measurement at the Multiskan ascent plate reader (Thermo Fisher Scientific Inc.,) at 550 and 630 nm. […] Each experiment was performed in duplicate.

Consider `CCCCC1(CCCC)CO[C@@](C)(OC)[C@@H](CNCCCn2ccnc2)C1` (racemic) [3a, N-((5,5-Dibutyl-2-methoxy-2-methyltetrahydro-2H-pyran-3-yl)methyl)-3-(1H-imidazol-1-yl)propan-1-amine], for which, in data set [1], the IC50 was 3.4 ± 0.4 µM and the “Selectivity index (SI) = CC50/IC50” value came to 10.4. Also, the CC50 at 72 h in data set [2] came to 35.2 ± 4.7 µM.
Taken in the same sequence, the figures for `CCCCC1(CCCC)C[C@H](CNCCCn2ccnc2)[C@](C)(OC)OO1` [2a] were 7.5 ± 1.7 µM, 9.6 and 72 ± 6.6 µM.
